Patent EP4603546A1, “SOLID DISPERSION CONTAINING SUBSTANCE TO BE DISPERSED, PHARMACEUTICAL COMPOSITION CONTAINING SAME, AND PRODUCTION METHODS THEREFOR” (CHUGAI SEIYAKU KABUSHIKI KAISHA, priority 2022, dated 2024)
In brackets after ≈: the same amount, converted by molar mass. Numbered stars: 1 amine (or outer) side, 2 acyl side, 3 side chain; on linkers, the order of the positions; unused ones are H or OH. Bridge positions count the residues as written; N and C are the ends. Square brackets hold non-standard residues; d marks the D form. Peptide text beside a SMILES is read from it. * marks the point of attachment. hPhe(3,5-F2-4-CF3) = N[C@@H](CCc1cc(F)c(C(F)(F)F)c(F)c1)C(=O)O; hPhe(3-Cl-4-CF3) = N[C@@H](CCc1ccc(C(F)(F)F)c(Cl)c1)C(=O)O; NMePhe(4-CF3) = CN[C@@H](Cc1ccc(C(F)(F)F)cc1)C(=O)O; NEtPhe(4-Me) = CCN[C@@H](Cc1ccc(C)cc1)C(=O)O; NMePhe(4-Me) = CN[C@@H](Cc1ccc(C)cc1)C(=O)O; NMedβ3hAla = C[C@H](CC(=O)[*:2])N(C)[*:1]; NMeGly(cPent) = CN[C@H](C(=O)O)C1CCCC1; Pro(4,4-F2) = O=C(O)[C@@H]1CC(F)(F)CN1; NMeGly(cBu) = CN[C@H](C(=O)O)C1CCC1; NMeCha = CN[C@@H](CC1CCCCC1)C(=O)O; Hyp = O=C(O)[C@@H]1C[C@@H](O)CN1; NMeChg = CN[C@H](C(=O)O)C1CCCCC1; NMeI = CC[C@H](C)[C@H](NC)C(=O)O; NMeD = CN[C@@H](CC(=O)O)C(=O)O; NMeL = CN[C@@H](CC(C)C)C(=O)O; NMeA = CN[C@@H](C)C(=O)O; Pyrrolidide = C1CCN(*)C1; Ac5c = NC1(C(=O)O)CCCC1; Aze = O=C(O)[C@@H]1CCN1; Sar = CNCC(=O)O

assay: physchem; details: pH 6.5, aqueous buffer
Procedure: Solubility (unit: mg/mL) was calculated from the measured compound concentration. The HPLC conditions are as follows. Detector: ultraviolet absorption photometer (measurement wavelength: 230 nm) Column: stainless steel tube of 2.1 mm inner diameter, 5 cm long filled with 1.7 µm ethylene cross-linked hybrid particles for liquid chromatography Column temperature: constant temperature near 70°C Mobile phase A: water/trifluoroacetic acid mixed solution (2000/1) Mobile phase B: acetonitrile/trifluoroacetic acid mixed solution (2000/1) Liquid delivery of mobile phase: concentration gradient control by changing the mixing ratio of mobile phase A and mobile phase B as shown in Table 8 below [Table 8]

solubility thermodynamic [µg/mL]	SMILES
< 1	CC[C@H](C)[C@@H]1NC(=O)[C@H](C2CCC2)N(C)C(=O)C[C@@H](C(=O)N2CCCC2)N(C)C(=O)[C@H](C2CCCCC2)N(C)C(=O)C2(CCCC2)NC(=O)[C@@H]2CC(F)(F)CN2C(=O)[C@H](CCc2cc(F)c(C(F)(F)F)c(F)c2)NC(=O)CN(C)C(=O)[C@H](CC2CCCCC2)N(C)C(=O)CN(C)C(=O)CN(C)C1=O [Compound V] ([NMeGly(cBu)]I[Sar][Sar][NMeCha][Sar][hPhe(3,5-F2-4-CF3)][Pro(4,4-F2)][Ac5c][NMeChg][NMeD]-Pyrrolidide; lactam N-11)
< 1	CC[C@H](C)[C@@H]1NC(=O)[C@H](CC(C)C)N(C)C(=O)C[C@@H](C(=O)N(C)C)N(C)C(=O)[C@H](C2CCCC2)N(C)C(=O)C2(CCCC2)NC(=O)[C@@H]2CCCN2C(=O)[C@H](CCc2cc(F)c(C(F)(F)F)c(F)c2)NC(=O)CN(C)C(=O)[C@H](Cc2ccc(C)cc2)N(CC)C(=O)[C@@H]2CCN2C(=O)[C@H](C)N(C)C1=O [Compound I] ([NMeL]I[NMeA][Aze][NEtPhe(4-Me)][Sar][hPhe(3,5-F2-4-CF3)]P[Ac5c][NMeGly(cPent)][NMeD]-NMe2; lactam N-11)

Continued, molecule first:

SMILES	solubility thermodynamic [µg/mL]
CC[C@H](C)[C@@H]1NC(=O)[C@H](CC(C)C)N(C)C(=O)C[C@@H](C(=O)N2CCCC2)N(C)C(=O)[C@H]([C@@H](C)CC)N(C)C(=O)C2(CCCC2)NC(=O)[C@@H]2CCCN2C(=O)[C@H](CCc2ccc(C(F)(F)F)c(Cl)c2)NC(=O)CN(C)C(=O)[C@H](Cc2ccc(C)cc2)N(C)C(=O)[C@@H]2CCN2C(=O)[C@H](C)N(C)C1=O [Compound III] ([NMeL]I[NMeA][Aze][NMePhe(4-Me)][Sar][hPhe(3-Cl-4-CF3)]P[Ac5c][NMeI][NMeD]-Pyrrolidide; lactam N-11)	10 (≈ 6.96 µM)
CC[C@H](C)[C@@H]1NC(=O)[C@H](CC(C)C)N(C)C(=O)C[C@@H](C(=O)N(C)C)N(C)C(=O)[C@H]([C@@H](C)CC)N(C)C(=O)C2(CCCC2)NC(=O)[C@@H]2CCCN2C(=O)[C@H](CCc2ccc(C(F)(F)F)c(Cl)c2)NC(=O)CN(C)C(=O)[C@H](Cc2ccc(C)cc2)N(C)C(=O)[C@@H]2CCN2C(=O)[C@H](C)N(C)C1=O [Compound IV] ([NMeL]I[NMeA][Aze][NMePhe(4-Me)][Sar][hPhe(3-Cl-4-CF3)]P[Ac5c][NMeI][NMeD]-NMe2; lactam N-11)	20 (≈ 14.2 µM)
CCO[C@@H]1C[C@H]2C(=O)NC3(CCCC3)C(=O)N(C)[C@@H]([C@@H](C)CC)C(=O)N(C)[C@H](C)CC(=O)N(C)[C@@H](CC(C)C)C(=O)N[C@@H]([C@@H](C)CC)C(=O)N(C)[C@@H](C)C(=O)N3CC[C@H]3C(=O)N(C)[C@@H](Cc3ccc(C(F)(F)F)cc3)C(=O)N(C)CC(=O)N[C@@H](CCc3ccc(C(F)(F)F)c(Cl)c3)C(=O)N2C1 [Compound II] (cyclo([Ac5c][NMeI][NMedβ3hAla][NMeL]I[NMeA][Aze][NMePhe(4-CF3)][Sar][hPhe(3-Cl-4-CF3)][Hyp](Et)))	1 (≈ 0.689 µM)
